Test results reported in PMC4684281, “Antitumor Effects and Mechanism of Novel Emodin Rhamnoside Derivatives against Human Cancer Cells In Vitro” (PLoS ONE, 2015).
Values after ≈ are worked out from the molar mass of the structure shown.

How the values were obtained:
HepG2 cells [1] = assay: Fluorescence microscopy assay (Hoechst 33342); type: cell-based, Human
Description: HepG2 cells were inoculated in duplicate at 3×10^5/well density in 6-well plate, and allowed to attach at 37°C for 24 hours. Afterwards, cells were treated with 10 μM HCPT, 25 μM emodin and specific concentration EM-d-Rha (0.1μM, 0.5μM, 2.5μM), respectively. Cell control group was set in the same way. […] Medium were exchanged as described previously. In the end, all medium were discarded and cells were digested with 2mL 0.25% Trypsin-EDTA solution at 37°C for 5 min. After cells were harvested, cells were washed with PBS twice followed by centrifuging at 300×g for 5 minutes. Finally, cells were re-suspended in 100μL cold PBS after the supernatant was discarded. Cells were cultured in the dark for 10 minutes at room temperature after adding 100μL 1mg/mL Hoechst 33342 staining solution. Cells were harvested again as described previously to discard the staining solution. Wash the harvested cells twice with PBS before applying to the clean glass slides. The morphological changes of cells nuclei were observed and photographed under the fluorescence microscope (Olympus, Japan) at 350 nm excitation wavelength. The experiment was repeated three times.

HepG2 cells [2] = assay: MTT cell viability assay, HepG2; type: cell-based, Human; details: Homo sapiens, HepG2; MTT, 72 hours; read-out: IC50 values, HepG2
Description: (§1) The viability of cancer cells was evaluated by MTT assay. Briefly, cells were inoculated in 96-well culture plates at the density of 1×10^4/well with complete medium containing 10% fetal calf serum in a final volume of 0.2 mL. Cells were incubated at 37°C for at least 24 hours to allow optimal attachment. When the cells reached 60% confluence, they were treated with Cisplatin, HCPT and emodin rhamnopyranosides derivatives in various concentrations, and incubated in a humidity-controlled 5%CO2 incubator at 37°C for 72 hours. Medium were exchanged once every 24 hours. Cell control group and blank group were set up in the same manner, with each group having six parallel wells. Cell survival was assessed by directly adding 22 μL of 5mg/mL MTT to 0.2 mL medium. After three hours, the formazan precipitate was dissolved in 200μL isopropanol per well, and completely mixed under room temperature. Afterwards, the optical density of each well was detected at 570 nm wavelength by iMark microplate reader (Bio-rad,USA). This experiment was repeated at least three times.

HeLa cells = assay: MTT cell viability assay, HeLa; type: cell-based, Human; details: Homo sapiens, HeLa; MTT, 72 hours; read-out: IC50 values, HeLa
Description: as §1

A549 cells = assay: MTT cell viability assay, A549; type: cell-based, Human; details: Homo sapiens, A549; MTT, 72 hours; read-out: IC50 values, A549
Description: as §1

MDCK cells = assay: MTT cell viability assay, MDCK; type: cell-based, Canine; details: Canis lupus familiaris, 72 hours
Description: as §1

OVCAR-3 cells = assay: MTT cell viability assay, OVCAR-3; type: cell-based, Human; details: Homo sapiens, OVCAR-3; MTT, 72 hours; read-out: IC50 values, OVCAR-3
Description: as §1

[3] = Solubility (structure-activity remark); type: physicochemical; details: one rhamnose introduced into emodin

SMILES | IC50 (HepG2 cells [2]) [µg/mL] | IC50 (HeLa cells) [µg/mL] | IC50 (A549 cells) [µg/mL] | IC50 (OVCAR-3 cells) [µg/mL] | Solubility of derivative relative to emodin [3] | Nuclear morphology, Hoechst 33342 (HepG2 cells [1]; HepG2, 2.5μM, 48h) | Nuclear morphology, Hoechst 33342 (HepG2 cells [1]; HepG2, 25μM) | IC50 (MDCK cells) [µg/mL]
CC[C@@]1(O)C(=O)OCc2c1cc1n(c2=O)Cc2cc3cc(O)ccc3nc2-1 [HCPT] |  |  |  |  |  | typical apoptotic nuclear morphology |  | 
CC(=O)O[C@@H]1[C@@H](O)[C@H](C)O[C@@H](Oc2cc(O)c3c(c2)C(=O)c2cc(C)cc(O)c2C3=O)[C@@H]1OC(C)=O [S-3] | > 20 | > 20 | > 20 | > 20 | improved |  |  | > 20
CC(=O)O[C@@H]1[C@@H](O)[C@@H](OC(C)=O)[C@H](Oc2cc(O)c3c(c2)C(=O)c2cc(C)cc(O)c2C3=O)O[C@H]1C [S-4] | > 20 | > 20 | 9.27 (≈ 18.5 µM) | > 20 |  |  |  | > 20
CC(=O)O[C@@H]1[C@@H](OC(C)=O)[C@@H](O)[C@H](Oc2cc(O)c3c(c2)C(=O)c2cc(C)cc(O)c2C3=O)O[C@H]1C [S-5] | 1.32 (≈ 2.64 µM) | 5.34 (≈ 10.7 µM) | 3.16 (≈ 6.31 µM) | > 20 |  |  |  | 14.8 (≈ 29.6 µM)
COc1cc(C)cc2c1C(=O)c1c(OC)cc(O[C@@H]3O[C@@H](C)[C@H](O)[C@@H](OC(C)=O)[C@H]3OC(C)=O)cc1C2=O [S-9] | 4.43 (≈ 8.38 µM) | 4.93 (≈ 9.33 µM) | 3.63 (≈ 6.87 µM) | 9.72 (≈ 18.4 µM) |  |  |  | 1.39 (≈ 2.63 µM)

Now from value to compound, other results behind:

IC50 (HepG2 cells [2]) [µg/mL] | IC50 (HeLa cells) [µg/mL] | IC50 (A549 cells) [µg/mL] | IC50 (OVCAR-3 cells) [µg/mL] | Solubility of derivative relative to emodin [3] | SMILES | Nuclear morphology, Hoechst 33342 (HepG2 cells [1]; HepG2, 2.5μM, 48h) | Nuclear morphology, Hoechst 33342 (HepG2 cells [1]; HepG2, 25μM) | IC50 (MDCK cells) [µg/mL]
12.8 (≈ 47.3 µM) | 12.1 (≈ 44.9 µM) | 19.5 (≈ 72.3 µM) | 25.8 (≈ 95.5 µM) |  | Cc1cc(O)c2c(c1)C(=O)c1cc(O)cc(O)c1C2=O [S-1, 3-methyl-1,6,8-trihydroxyanthraquinone, reference compound] |  | displayed apoptotic morphological changes | 5.81 (≈ 21.5 µM)
> 20 | > 20 | > 20 | > 20 |  | Cc1cc(O)c2c(c1)C(=O)c1cc(O[C@@H]3O[C@@H](C)[C@H](O)[C@@H](O)[C@H]3O)cc(O)c1C2=O [S-2] |  |  | > 20
> 20 | > 20 | 2.25 (≈ 4.91 µM) | > 20 |  | CC(=O)O[C@@H]1[C@@H](O)[C@@H](O)[C@H](Oc2cc(O)c3c(c2)C(=O)c2cc(C)cc(O)c2C3=O)O[C@H]1C [S-6] |  |  | 21.1 (≈ 46 µM)
